The test system of this data set is human A549 lung cancer xenografts. Nature of the data set: A549 lung cancer xenograft, cells electroporated with miRNA before implantation. It counts as in vivo, NOD/SCID mice. Particulars: cells electroporated with 5 μg miRNA, injected subcutaneously; tumors measured days 14-20; vs negative control miRNA. As for the experimental part:
The inventors assessed the growth-inhibitory activity of hsa-miR-147 in a human lung cancer xenograft grown in immunodeficient mice. Hsa-miR-147 was delivered into A549 lung cancer cells via electroporation using the BioRad GenePulserXcell™ instrument with the following settings: 15×10^6 cells with 5 μg miRNA in 200 μl OptiMEM, square wave pulse at 150 V for 10 ms. A total of 30×10^6 A549 cells was used to 5×10^6 electroporated cells were mixed with matrigel in a 1:1 ratio and injected subcutaneously into the flank of NOD/SCID mice. As a negative control, A549 cells were electroporated with negative control miRNA (pre-miR-NC#2, Ambion) as describe above. NC miRNA-treated cells were injected into the opposite flank of the same animal to control for animal-to-animal variability. A total of 30×10^6 A549 cells per hsa-miR-147 and NC was used to accommodate 5 injections into 5 animals. Size measurements of tumors started 14 days after injection once tumors have reached a measurable size. Length and width of tumors were determined every day for the following 6 days. Tumor volumes were calculated using the formula V=length×width^2/2 in which the length is greater than the width. Tumor volumes derived from NC-treated cells and hsa-miR-147-treated cells were averaged and plotted over time (FIG. 5). Standard deviations are shown in the graph. […]

As for “hsa-miR-147: Synthetic pre-miR-147 (Ambion AM17100; Dharmacon in vivo); mature sequence GUGUGUGGAAAUGCUUCUGC, MIMAT0000251, SEQ ID NO:114 (synthetic pre-miR (Ambion/Dharmacon), chemistry not given here; listed as Homo sapiens)”, the “tumor growth of A549 xenograft” value is listed as “inhibited tumor growth in vivo”.

The values above are taken from patent US20090131356A1, “miR-15, miR-26, miR-31, miR-145, miR-147, miR-188, miR-215, miR-216, miR-331, mmu-miR-292-3P REGULATED GENES AND PATHWAYS AS TARGETS FOR THERAPEUTIC INTERVENTION” (ASURAGEN, INC., priority 2006, published 2009).
